Data reported in article PMC5698418 (Nature Communications, 2017).

What was measured:
[1] = system: Arc protein; experiment: Western blot of total Arc protein in primary cortical neurons; assay type: cell-based, mouse; details: BDNF 6 h supplemented with compound
Protocol: Forebrains of E16.5 C57BL/6 mouse embryos were dissected and then dissociated in trypsin solution for 15 min followed by three washes with phosphate-buffered saline (PBS). Single-cell suspension was achieved by gentle pipet trituration. Neurons were seeded in poly-L-lysine/laminin-coated six-well plates at a density of 2 × 10^6 per well and maintained in neurobasal medium containing B27 supplement (2%, Invitrogen, Grand Island, NY), penicillin (50 units ml^−1, Invitrogen), streptomycin (50 µg ml^−1, Invitrogen), and glutamine (1 mM, Sigma). For experiments involving BDNF (EMD Millipore Corps, Billerica, MA), the stock solution (2 ng µl^−1 in water) was added directly to the culture medium at a final concentration of 100 ng ml^−1 for the indicated period of time.
For western blot analyses, cells were collected by scraping in ice-cold radioimmunoprecipitation assay (RIPA) buffer (50 mM Tris-HCl (pH 8.0), 300 mM NaCl, 0.5% Igepal-630, 0.5% deoxycholic acid, 0.1% SDS, 1 mM EDTA) supplemented with a cocktail of protease inhibitors (Complete Protease Inhibitor without EDTA, Roche Applied Science, Indianapolis, IN) and phosphatase inhibitors (phosphatase inhibitor cocktail A, Santa Cruz Biotechnology). One volume of 2× Laemmli buffer (100 mM Tris-HCl (pH 6.8), 4% SDS, 0.15% bromophenol blue, 20% glycerol, 200 mM β-mercaptoethanol) was added and the extracts were boiled for 5 min. Samples were adjusted to an equal concentration after protein concentrations were determined using the BCA assay (Pierce, Thermo Fisher Scientific). Lysates were separated using SDS–PAGE and transferred to a nitrocellulose membrane. After transfer, the membrane was blocked in TBST (Tris-buffered saline + 0.1% Tween 20) supplemented with 5% nonfat powdered milk and probed with the indicated primary antibody at 4 °C overnight. After washing with TBST, the membrane was incubated with the appropriate secondary antibody and visualized using enhanced chemiluminescence (ECL) reagents according to the manufacturer’s guidelines (Pierce, Thermo Fisher Scientific).
The following procedure was used to quantify western blots. First, equal quantity of protein lysate was analyzed by SDS–PAGE for each biological replicate. Second, the exposure time of the film to the ECL chemiluminescence was the same for each biological replicate. Third, all the exposed films were scanned on a Brother MFC-J485DW scanner in grayscale at a resolution of 300 dpi. Fourth, the look-up table (LUT) of the scanned tiff images was inverted and the intensity of each band was individually measured using the selection tool and the histogram function in Adobe Photoshop CC 2015 software. […]

[2] = system: Arc protein in dentate gyrus; experiment: Arc immunohistochemistry in dentate gyrus after intraperitoneal injection; assay type: in vivo, mouse; details: 30 mg kg−1 i.p., 3 h
Protocol: Male mice (C57BL/6 strain) were received as 6-weeks old and habituated to their home cage as trios for 2 weeks before conducting the experiments. During the habituation time period, mice were kept on a light–dark cycle with minimal disruption and unrestricted access to food and water. On experiment day, mice from the same cage were taken and randomly subjected to intraperitoneal injection of vehicle (25% Kolliphor EL (Sigma-Aldrich, C5135), 10% DMSO) or AK-7 (30 mg kg^−1) solution and immediately placed back in their home cage or transferred to a novel environment. The novel environment consisted of a large cage placed in a different room with new bedding, food, as well as multiple objects like tunnel, running wheel, igloo, and aspen labyrinth that the mice could freely explore. About 3 h after the injection procedure, mice were rapidly anesthetized and killed by decapitation. Finally, brain tissues were harvested and flash frozen in a dry ice/isopentane bath and stored at −80 °C. All experiments were approved by the Animal Care and Use Committee of the Massachusetts General Hospital and carried out according to institutional guidelines.
Coronal sections containing the hippocampus from all animals were cut from the frozen blocks at a thickness of 20 µm with a CM3050 cryostat (Leica, Nussloch, Germany). […]
The following approach was adopted to quantify the number of Arc-positive cell bodies and average acetyl-H3K9 immunostaining pixel intensity in dentate gyrus. First, complete dentate gyrus overlapping grayscale images of DAPI fluorescence and Arc or acetyl-H3K9 immunostaining were collected using a ×20 objective and Nikon Eclipse 90i upright microscope equipped with a motorized stage and image stitching capability. Second, the boundary of the dentate gyrus based on the DAPI fluorescence was determined in each image set with the ImageJ wand tool. Finally, this information was used for image segmentation and quantification of Arc-positive cell bodies or average acetyl-H3K9 immunostaining pixel intensity within each dentate gyrus images. […]

[3] = system: acetyl-H3K9; experiment: Acetyl-H3K9 immunofluorescence in neuronal nuclei (multiplexed in screen); assay type: cell-based, mouse; details: screen, 16.7 µM
Summary of the method: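 DIV13 mouse primary cortical neurons treated with library compounds and BDNF, then immunostained for Arc and acetyl-H3K9. Imaged at ×40 by automated microscopy; acetyl-H3K9 signal served as nuclear mask for quantifying nuclear Arc immunofluorescence.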

[4] = molecular target: T1, HDAC5 (Homo sapiens, UniProt Q9UQL6); experiment: Biochemical HDAC assay (BPS Bioscience), HDAC5; details: 25 µM
T1 construct: purchased BPS Bioscience (San Diego, CA), contract assay service

[5] = molecular target: T2, HDAC8 (Homo sapiens, UniProt Q9BY41); experiment: Biochemical HDAC assay (BPS Bioscience), HDAC8; details: 25 µM
T2 construct: purchased BPS Bioscience (San Diego, CA), contract assay service

[6] = molecular target: T3, HDAC3 (Homo sapiens, UniProt O15379); experiment: Biochemical HDAC assay (BPS Bioscience), HDAC3; details: 25 µM
T3 construct: purchased BPS Bioscience (San Diego, CA), contract assay service

[7] = system: surface GluA1; experiment: Surface AMPAR (GluA1) imaging along dendrites; assay type: cell-based, mouse; details: 16.7 µM, 6 h with BDNF, vs untreated and BDNF alone; for BDNF: BDNF alone vs baseline
Protocol: Our procedure to label surface AMPARs containing the GluA1 subunit was adapted from two reports[14],[61]. Precisely, DIV14 primary cortical neurons cultured on coverslips were rinsed once with room temperature PBS^MC (PBS containing 0.5 mM CaCl2, 1 mM MgCl2, and 4% sucrose). Live cells were then incubated for 30 min at room temperature with GluA1 primary antibody solution (PBS^MC with antibody against the extracellular N-terminus of GluA1 (EMD Millipore Corp, clone RH95, 5.0 µg ml^−1)). Next, cells were rinsed twice with ice-cold PBS^MC followed by fixation with 4% paraformaldehyde + 4% sucrose solution for 15 min at room temperature. After fixation, neurons were washed with regular PBS and then incubated overnight with Map2 primary antibody solution (PBS with 0.125% Triton X-100, 5% normal goat serum, and anti-Map2 antibody) to label dendrites. Next day, coverslips were washed with PBS, incubated with appropriate secondary antibodies for 1 h at room temperature, and finally mounted on glass slides with ProLong Antifade reagent (Invitrogen).
Quantification of surface GluA1 puncta was performed according to the following strategy. First, overlapping digital images of GluA1 and Map2 immunostainings were collected using a Zeiss AxioObserver Z1 inverted microscope and ×63 oil immersion objective. Second, thresholding and segmentation based on the Map2 images was used to remove GluA1 signals outside of dendritic processes. Importantly, the same background/foreground cutoff threshold was used for images of all experimental conditions. Third, the length of dendrites for each image set was measured and recorded. Finally, distinct GluA1 foreground objects along dendrites >5 pixels were counted using the particle analysis tool in ImageJ and presented as the average number of GluA1 puncta per µm of dendrite length for each experimental condition.

T3 sequence (O15379 whole entry): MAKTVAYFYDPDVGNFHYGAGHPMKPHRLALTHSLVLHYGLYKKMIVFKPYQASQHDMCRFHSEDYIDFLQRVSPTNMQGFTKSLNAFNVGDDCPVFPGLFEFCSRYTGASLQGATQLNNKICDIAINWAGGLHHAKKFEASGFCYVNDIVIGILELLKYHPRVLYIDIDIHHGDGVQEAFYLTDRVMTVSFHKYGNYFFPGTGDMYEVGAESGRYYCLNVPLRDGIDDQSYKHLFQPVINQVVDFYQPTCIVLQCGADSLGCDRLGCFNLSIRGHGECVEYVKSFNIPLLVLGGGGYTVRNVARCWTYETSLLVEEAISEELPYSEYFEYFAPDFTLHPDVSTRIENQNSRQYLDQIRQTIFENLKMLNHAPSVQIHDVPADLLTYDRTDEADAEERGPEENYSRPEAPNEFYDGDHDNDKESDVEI
T3 sequence (Q9Y618 395-489 partner limits assumed): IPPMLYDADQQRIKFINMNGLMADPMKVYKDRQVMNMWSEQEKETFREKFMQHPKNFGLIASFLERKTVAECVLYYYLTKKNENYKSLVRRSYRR
T1 sequence (Q9UQL6 whole entry): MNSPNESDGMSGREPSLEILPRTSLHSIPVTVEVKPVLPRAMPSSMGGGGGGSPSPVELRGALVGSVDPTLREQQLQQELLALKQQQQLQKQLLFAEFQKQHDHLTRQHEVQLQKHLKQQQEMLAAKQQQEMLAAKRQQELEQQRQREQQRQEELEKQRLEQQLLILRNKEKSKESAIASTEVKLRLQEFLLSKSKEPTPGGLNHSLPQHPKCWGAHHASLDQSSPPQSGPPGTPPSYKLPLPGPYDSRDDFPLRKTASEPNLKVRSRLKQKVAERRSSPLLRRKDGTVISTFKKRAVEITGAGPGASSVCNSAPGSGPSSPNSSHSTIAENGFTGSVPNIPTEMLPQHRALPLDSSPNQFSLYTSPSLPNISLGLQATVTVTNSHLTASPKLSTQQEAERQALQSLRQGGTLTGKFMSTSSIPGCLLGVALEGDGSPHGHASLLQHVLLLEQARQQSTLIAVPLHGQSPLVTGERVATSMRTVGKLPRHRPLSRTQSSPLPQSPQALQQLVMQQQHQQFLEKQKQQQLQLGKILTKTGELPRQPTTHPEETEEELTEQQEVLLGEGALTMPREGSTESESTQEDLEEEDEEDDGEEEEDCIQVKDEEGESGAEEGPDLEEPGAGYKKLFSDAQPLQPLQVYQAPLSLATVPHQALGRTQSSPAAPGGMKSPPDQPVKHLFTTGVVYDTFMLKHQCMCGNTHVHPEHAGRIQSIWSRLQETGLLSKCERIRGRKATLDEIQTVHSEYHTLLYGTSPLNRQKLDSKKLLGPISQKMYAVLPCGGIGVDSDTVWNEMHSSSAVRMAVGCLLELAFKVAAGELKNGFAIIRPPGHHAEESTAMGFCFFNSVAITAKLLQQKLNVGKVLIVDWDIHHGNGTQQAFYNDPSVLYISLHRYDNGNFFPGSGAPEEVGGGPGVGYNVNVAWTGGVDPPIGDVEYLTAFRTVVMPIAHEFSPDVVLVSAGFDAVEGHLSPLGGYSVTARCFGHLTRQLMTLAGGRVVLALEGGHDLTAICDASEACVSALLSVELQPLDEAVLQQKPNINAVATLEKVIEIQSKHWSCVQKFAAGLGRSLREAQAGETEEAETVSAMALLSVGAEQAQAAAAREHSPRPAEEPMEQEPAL
T2 sequence (Q9BY41 whole entry): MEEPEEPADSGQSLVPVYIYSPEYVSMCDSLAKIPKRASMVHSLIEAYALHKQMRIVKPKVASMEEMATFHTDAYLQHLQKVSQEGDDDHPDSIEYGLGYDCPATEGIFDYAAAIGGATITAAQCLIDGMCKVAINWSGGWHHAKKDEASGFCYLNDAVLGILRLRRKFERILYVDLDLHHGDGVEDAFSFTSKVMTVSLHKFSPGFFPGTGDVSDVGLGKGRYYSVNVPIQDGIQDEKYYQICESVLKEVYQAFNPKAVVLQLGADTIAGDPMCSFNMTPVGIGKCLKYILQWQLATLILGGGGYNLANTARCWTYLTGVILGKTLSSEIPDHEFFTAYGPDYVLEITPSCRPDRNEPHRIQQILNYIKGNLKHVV

SMILES: O=C(Nc1cccc(Br)c1)c1cccc(S(=O)(=O)N2CCCCCC2)c1 [AK-7]
- total Arc protein vs BDNF plus vehicle control (western blot, Arc/β-actin) [1]: significantly more Arc protein
- Arc immunofluorescence signal intensity in cell bodies vs vehicle ([2]; home cage): not statistically different
- number of neurons with prominent Arc immunostaining in dentate gyrus vs vehicle ([2]; home cage): more than eight times
- number of Arc immunopositive cell bodies in dentate gyrus vs vehicle ([2]; novel environment): did not led to more Arc immunopositive cell bodies
- impact on acetyl-H3K9 immunofluorescence (Z-score) [3]: increasing effect of intermediate intensity
- inhibitory activity toward HDAC5 [4]: failed to show any inhibitory activity
- inhibitory activity toward HDAC8 [5]: failed to show any inhibitory activity
- inhibitory activity toward HDAC3 [6]: failed to show any inhibitory activity
- surface GluA1 puncta per dendrite µm [7]: significant decrease in surface GluA1 levels
